The values below come from US9084420B2, “Amide derivative, pest control agent containing the amide derivative, and pest controlling method” (Mitsui Chemicals Agro, Inc., priority 2008, dated 2015).

In one experiment the test system is Plutella xylostella. As to the kind of experiment: Pesticidal test against Plutella xylostella (cabbage leaf immersion). It is filed as in vivo. As to conditions: 144 h, 3-stage larvae on treated cabbage leaf, 25° C., after 6 days, read-out: pesticidal rate. The protocol: Pesticidal Test Against Plutella xylostella A piece of a cabbage leaf was immersed for 30 seconds in a chemical solution in which a test compound had been diluted at a predetermined concentration, and air-dried, and then put into a 7 cm polyethylene cup having a filter paper laid on the bottom thereof, and 3-stage larvae of Plutella xylostella were released. They were left to stand in a thermostatic chamber at 25° C., and the numbers of the living pests and the dead pests were examined after 6 days. The test was carried out with five larvae per group in two replicates.

The next experiment deals with Spodoptera litura. The experiment can be described thus: Pesticidal test against Spodoptera litura (cabbage leaf immersion). It is filed as in vivo. As to conditions: 144 h, 2-stage larvae on treated cabbage leaf, 25° C., after 6 days, read-out: pesticidal rate. The protocol: Pesticidal Test Against Spodoptera litura A piece of a cabbage leaf was immersed for 30 seconds in a chemical solution in which a test compound had been diluted at a predetermined concentration, and air-dried, and then put into a 7 cm polyethylene cup having a filter paper laid on the bottom thereof, and 2-stage larvae of Spodoptera litura were released. They were left to stand in a thermostatic chamber at 25° C., and the numbers of the living pests and the dead pests were examined after 6 days. The test was carried out with five larvae per group in two replicates.

Structures can show the parent of a compound that is named as a salt.

Turning to `COC(=O)CCN(C(=O)c1ccccc1)c1cccc(C(=O)Nc2c(C)cc(C(F)(C(F)(F)F)C(F)(F)F)cc2C)c1` [5-1, methyl 3-(N-(3-(2,6-dimethyl-4-(perfluoropropan-2-yl)phenylcarbamoyl)phenyl)benzamide)propanoate], the pest or weed control at 100 ppm in the experiment with Plutella xylostella and with Spodoptera litura was no less than 70% throughout.

Consider `COC(=O)CN(C(=O)c1cccc(N(C)C(=O)c2ccccc2)c1F)c1c(C)cc(C(F)(C(F)(F)F)C(F)(F)F)cc1C` [7-221, methyl 2-(N-(2,6-dimethyl-4-(perfluoropropan-2-yl)phenyl)-2-fluoro-3-(N-methylbenzamide)benzamide)acetate], for which the pest or weed control at 100 ppm with Plutella xylostella and in the experiment with Spodoptera litura was no less than 70% each time.

On to `Cc1cc(C(F)(C(F)(F)F)C(F)(F)F)cc(C)c1NC(=O)c1cccc(N(CCCN)C(=O)c2ccccc2)c1` [6-20, N-(3-aminopropyl)-N-(3-(2,6-dimethyl-4-(perfluoropropan-2-yl)phenylcarbamoyl)phenyl)benzamide], for which the pest or weed control at 100 ppm in the experiment on Plutella xylostella and with Spodoptera litura was no less than 70% each time.

In the case of `Cc1cc(C(F)(C(F)(F)F)C(F)(F)F)cc(C)c1NC(=O)c1cccc(N(CC/C(N)=N/O)C(=O)c2ccccc2)c1` [5-91, N-(3-amino-3-(hydroxyimino)propyl)-N-(3-(2,6-dimethyl-4-(perfluoropropan-2-yl)phenylcarbamoyl)phenyl)benzamide], the pest or weed control at 100 ppm in the experiment on Plutella xylostella and in the experiment with Spodoptera litura was no less than 70% in each case.

Take `Cc1cc(C(F)(C(F)(F)F)C(F)(F)F)cc(C)c1N(CC(=O)O)C(=O)c1cccc(N(C)C(=O)c2ccccc2)c1F` [7-222, 2-(N-(2,6-dimethyl-4-(perfluoropropan-2-yl)phenyl)-2-fluoro-3-(N-methylbenzamide)benzamide)acetic acid]: the pest or weed control at 100 ppm in the experiment with Plutella xylostella and in the experiment with Spodoptera litura was no less than 70% in each case.

With `Cc1cc(C(F)(C(F)(F)F)C(F)(F)F)cc(C)c1N(C)C(=O)c1cccc(N(CC#N)C(=O)c2ccccc2)c1` [6-18, 3-(N-(cyanomethyl)benzamide)-N-(2,6-dimethyl-4-(perfluoropropan-2-yl)phenyl)-N-methylbenzamide], the pest or weed control at 100 ppm with Plutella xylostella and in the experiment on Spodoptera litura was no less than 70% in each case.

Take `Cc1cc(C(F)(C(F)(F)F)C(F)(F)F)cc(C)c1N(C)C(=O)c1cccc(N(CS(C)(=O)=O)C(=O)c2ccccc2)c1` [6-8, N-(2,6-dimethyl-4-(perfluoropropan-2-yl)phenyl)-N-methyl-3-(N-(methylsulfonylmethyl)benzamide)benzamide]: the pest or weed control at 100 ppm with Plutella xylostella and in the experiment on Spodoptera litura was no less than 70% in each case.

As for `Cc1cc(C(F)(C(F)(F)F)C(F)(F)F)cc(C)c1N(C)C(=O)c1cccc(N(CCS(C)(=O)=O)C(=O)c2ccccc2)c1` [5-73, N-(2,6-dimethyl-4-(perfluoropropan-2-yl)phenyl)-N-methyl-3-(N-(2-(methylsulfonyl)ethyl)benzamide)benzamide], the pest or weed control at 100 ppm with Plutella xylostella and in the experiment on Spodoptera litura was no less than 70% each time.

`Cc1cc(C(F)(C(F)(F)F)C(F)(F)F)cc(C)c1N(C)C(=O)c1cccc(N(CC[S+](C)[O-])C(=O)c2ccccc2)c1` (stereo not shown) [5-72, N-(2,6-dimethyl-4-(perfluoropropan-2-yl)phenyl)-N-methyl-3-(N-(2-(methylsulfinyl)ethyl)benzamide)benzamide]: the pest or weed control at 100 ppm with Plutella xylostella and in the experiment on Spodoptera litura was no less than 70% throughout.

For `Cc1cc(C(F)(C(F)(F)F)C(F)(F)F)cc(C)c1NC(=O)c1cccc(N(CCCN/C(N)=N/[N+](=O)[O-])C(=O)c2ccccc2)c1` [6-61, N-(3-(2,6-dimethyl-4-(perfluoropropan-2-yl)phenylcarbamoyl)phenyl)-N-(3-(2-nitroguanidino)propyl)benzamide], the pest or weed control at 100 ppm with Spodoptera litura was no less than 70%.

In the case of `CSCN(C(=O)c1ccccc1)c1cccc(C(=O)N(C)c2c(C)cc(C(F)(C(F)(F)F)C(F)(F)F)cc2C)c1` [6-6, N-(2,6-dimethyl-4-(perfluoropropan-2-yl)phenyl)-N-methyl-3-(N-(methylthiomethyl)benzamide)benzamide], the pest or weed control at 100 ppm in the experiment on Plutella xylostella and in the experiment on Spodoptera litura was no less than 70% each time.

As for `Cc1cc(C(F)(C(F)(F)F)C(F)(F)F)cc(C)c1NC(=O)c1cccc(N(CCC(=O)NN)C(=O)c2ccc(C#N)cc2)c1F` [5-83, 3-(4-cyano-N-(3-hydrazinyl-3-oxopropyl)benzamide)-N-(2,6-dimethyl-4-(perfluoropropan-2-yl)phenyl)-2-fluorobenzamide], the pest or weed control at 100 ppm in the experiment on Plutella xylostella and with Spodoptera litura was no less than 70% in each case.

As for `Cc1cc(C(F)(C(F)(F)F)C(F)(F)F)cc(C)c1N(C)C(=O)c1cccc(N(CC(N)=O)C(=O)c2ccccc2)c1` [6-12, 3-(N-(2-amino-2-oxoethyl)benzamide)-N-(2,6-dimethyl-4-(perfluoropropan-2-yl)phenyl)-N-methylbenzamide], the pest or weed control at 100 ppm in the experiment with Plutella xylostella and in the experiment on Spodoptera litura was no less than 70% throughout.

Consider `N#Cc1ccc(C(=O)N(CCC(=O)NCC(N)=O)c2cccc(C(=O)Nc3c(Br)cc(C(F)(C(F)(F)F)C(F)(F)F)cc3Br)c2F)cc1` [5-31, 3-(N-(3-(2-amino-2-oxoethylamino)-3-oxopropyl)-4-cyanobenzamide)-N-(2,6-dibromo-4-(perfluoropropan-2-yl)phenyl)-2-fluorobenzamide], for which the pest or weed control at 100 ppm with Plutella xylostella and with Spodoptera litura was no less than 70% in each case.

For `COC(=O)CN(C(=O)c1ccccc1)c1cccc(C(=O)N(C)c2c(C)cc(C(F)(C(F)(F)F)C(F)(F)F)cc2C)c1` [6-1, methyl 2-(N-(3((2,6-dimethyl-4-(perfluoropropan-2-yl)phenyl)(methyl)carbamoyl)phenyl)benzamide)acetate], the pest or weed control at 100 ppm in the experiment on Plutella xylostella and in the experiment on Spodoptera litura was no less than 70% each time.

As for `Cc1cc(C(F)(C(F)(F)F)C(F)(F)F)cc(C)c1N(CC(=O)O)C(=O)c1cccc(N(CC(=O)O)C(=O)c2ccccc2)c1F` [8-13, 2-(N-(3((carboxymethyl)(2,6-dimethyl-4-(perfluoropropan-2-yl)phenyl)carbamoyl)-2-fluorophenyl)benzamide)acetic acid], the pest or weed control at 100 ppm in the experiment with Plutella xylostella was no less than 70%.

As for `Cc1cc(C(F)(C(F)(F)F)C(F)(F)F)cc(C)c1NC(=O)c1cccc(N(CCC(=O)OCC(NC(=O)OC(C)(C)C)C(=O)OC(C)(C)C)C(=O)c2ccccc2)c1` (stereo not shown) [5-22, tert-butyl 2-(tert-butoxycarbonylamino)-3-(3-(N-(3-(2,6-dimethyl-4-(perfluoropropan-2-yl)phenylcarbamoyl)phenyl)benzamide)propanoyloxy)propanoate], the pest or weed control at 100 ppm with Plutella xylostella and with Spodoptera litura was no less than 70% in each case.

With `Cc1cc(C(F)(C(F)(F)F)C(F)(F)F)cc(C)c1NC(=O)c1cccc(N(CCC(=O)OCC(N)C(=O)O)C(=O)c2ccccc2)c1` (stereo not shown) [5-25, 2-amino-3-(3-(N-(3-(2,6-dimethyl-4-(perfluoropropan-2-yl)phenylcarbamoyl)phenyl)benzamide)propanoyloxy)propanoic acid hydrochloric acid salt], the pest or weed control at 100 ppm in the experiment with Plutella xylostella and with Spodoptera litura was no less than 70% each time.

Take `CNC(=O)NCCCN(C(=O)c1ccccc1)c1cccc(C(=O)Nc2c(C)cc(C(F)(C(F)(F)F)C(F)(F)F)cc2C)c1` [6-49, N-(3-(2,6-dimethyl-4-(perfluoropropan-2-yl)phenylcarbamoyl)phenyl)-N-(3-(3-methylureido)propyl)benzamide]: the pest or weed control at 100 ppm in the experiment with Plutella xylostella and in the experiment on Spodoptera litura was no less than 70% in each case.

Take `Cc1cc(C(F)(C(F)(F)F)C(F)(F)F)cc(C)c1NC(=O)c1cccc(N(CC=O)C(=O)c2ccccc2)c1` [6-59, N-(3-(2,6-dimethyl-4-(perfluoropropan-2-yl)phenylcarbamoyl)phenyl)-N-(2-oxoethyl)benzamide]: the pest or weed control at 100 ppm in the experiment on Plutella xylostella and with Spodoptera litura was no less than 70% in each case.

As for `Cc1cc(C(F)(C(F)(F)F)C(F)(F)F)cc(C)c1N(CCO)C(=O)c1cccc(N(C)C(=O)c2ccccc2)c1F` [7-23, N-(2,6-dimethyl-4-(perfluoropropan-2-yl)phenyl)-2-fluoro-N-(2-hydroxyethyl)-3-(N-methylbenzamide)benzamide], the pest or weed control at 100 ppm in the experiment with Plutella xylostella is no less than 70%.

As for `Cc1cc(C(F)(C(F)(F)F)C(F)(F)F)cc(C)c1NC(=O)c1cccc(N(CCC(=O)O)C(=O)c2ccccc2)c1` [5-4, 3-(N-(3-(2,6-dimethyl-4-(perfluoropropan-2-yl)phenylcarbamoyl)phenyl)benzamide)propanoic acid], in the experiment on Plutella xylostella, the pest or weed control at 100 ppm is no less than 70%.

Consider `COC(=O)CCCN(C(=O)c1ccccc1)c1cccc(C(=O)N(C)c2c(C)cc(C(F)(C(F)(F)F)C(F)(F)F)cc2C)c1` [6-13, methyl 4-(N-(3-((2,6-dimethyl-4-(perfluoropropan-2-yl)phenyl)(methyl)carbamoyl)phenyl)benzamide)butanoate], for which, in the experiment with Plutella xylostella, the pest or weed control at 100 ppm was no less than 70%.

As for `CS(=O)(=O)CCN(C(=O)c1cccc(NC(=O)c2ccccc2)c1F)c1c(Br)cc(C(F)(C(F)(F)F)C(F)(F)F)cc1Br` [7-169, 3-benzamide-N-(2,6-dibromo-4-(perfluoropropan-2-yl)phenyl)-2-fluoro-N-(2-(methylsulfonyl)ethyl)benzamide], the pest or weed control at 100 ppm in the experiment on Plutella xylostella was no less than 70%.

On to `COC(=O)CCN(C(=O)c1cccc(NC(=O)c2ccccc2)c1)c1c(C)cc(C(F)(C(F)(F)F)C(F)(F)F)cc1C` [7-6, methyl 3-(3-benzamide-N-(2,6-dimethyl-4-(perfluoropropan-2-yl)phenyl)benzamide)propanoate], for which, in the experiment with Plutella xylostella, the pest or weed control at 100 ppm was no less than 70%.
